Data as given in BindingDB's records for patent US12384776 (Foghorn Therapeutics, 2025).

biological target: T1, Bromodomain-containing protein 9 (Human, UniProt Q9H8M2); assay: SYO1 BRD9 NanoLuc Degradation Assay; settings: read-out: IC50 (the source's name)
T1 sequence (Q9H8M2 whole entry): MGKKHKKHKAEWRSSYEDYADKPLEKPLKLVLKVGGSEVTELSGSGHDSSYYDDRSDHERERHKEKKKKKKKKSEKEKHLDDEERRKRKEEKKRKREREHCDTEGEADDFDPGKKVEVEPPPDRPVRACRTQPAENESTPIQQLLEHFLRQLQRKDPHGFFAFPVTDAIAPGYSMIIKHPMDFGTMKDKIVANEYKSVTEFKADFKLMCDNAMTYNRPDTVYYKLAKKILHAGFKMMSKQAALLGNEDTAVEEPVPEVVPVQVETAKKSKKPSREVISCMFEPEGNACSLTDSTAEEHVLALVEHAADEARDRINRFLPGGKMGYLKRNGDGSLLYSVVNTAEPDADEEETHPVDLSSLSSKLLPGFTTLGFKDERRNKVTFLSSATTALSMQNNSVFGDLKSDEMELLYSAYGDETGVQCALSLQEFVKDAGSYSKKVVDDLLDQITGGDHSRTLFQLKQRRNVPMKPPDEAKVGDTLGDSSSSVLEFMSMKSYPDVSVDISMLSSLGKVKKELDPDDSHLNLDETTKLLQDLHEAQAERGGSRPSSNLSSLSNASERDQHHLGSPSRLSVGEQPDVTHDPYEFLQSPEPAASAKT
Description: A stable SYO-1 cell line expressing 3×FLAG-NLuc-BRD9 was generated. On day 0 cells were seeded in 30 μL media into each well of 384-well cell culture plates. The seeding density was 8000 cells/well. On day 1, cells were treated with 30 nL DMSO or 30 nL of 3-fold serially DMSO-diluted compounds (10 points in duplicates with 1 μM as final top dose). Subsequently plates were incubated for 6 hours in a standard tissue culture incubator and equilibrated at room temperature for 15 minutes. Nanoluciferase activity was measured by adding 15 μL of freshly prepared Nano-Glo Luciferase Assay Reagent (Promega N1130), shaking the plates for 10 minutes and reading the bioluminescence using an EnVision reader.

`COc1cc(-c2cn(C)c(=O)c3c2CCN(C(=O)NCCOCCOCCNc2cccc4c2C(=O)N(C2CCC(=O)NC2=O)C4=O)C3)cc(OC)c1CN(C)C` (stereo unspecified) [US12384776, Compound D12] and `COc1cc(-c2cn(C)c(=O)c3c2CCN(C(=O)NC2CCC24CCN(CCOc2ccc5c(c2)C(=O)N(C2CCC(=O)NC2=O)C5=O)CC4)C3)cc(OC)c1CN(C)C` (stereo unspecified) [US12384776, Compound D239] cannot be ordered by DC50: over 10 nM for the first, over 10 nM for the second.

`CNC(=O)N1CCc2c(-c3cc(OC)c(CN4CCN(CCC5CCN(c6ccc7c(c6)C(=O)N(C6CCC(=O)NC6=O)C7=O)CC5)CC4C(F)(F)F)c(OC)c3)cn(C)c(=O)c2C1` (stereo unspecified) [US12384776, Compound D97] and `CNC(=O)N1CCc2c(-c3cc(OC)c(CN4CCN(CCC5CCN(c6ccc7c(c6)C(=O)N(C6CCC(=O)NC6=O)C7=O)CC5)C(C)(C)C4)c(OC)c3)cn(C)c(=O)c2C1` (stereo unspecified) [US12384776, Compound D101] cannot be ordered by DC50: under 10 nM for the first, under 10 nM for the second.

`CNC(=O)N1CCc2c(-c3cc(OC)c(CN4CC5(CC(C#Cc6ccc7c(c6)C(=O)N(C6CCC(=O)NC6=O)C7=O)C5)C4)c(OC)c3)cn(C)c(=O)c2C1` (stereo unspecified) [US12384776, Compound D133] and `CNC(=O)N1CCc2c(-c3cc(OC)c(CN4CCC5(CC(C#Cc6ccc7c(c6)C(=O)N(C6CCC(=O)NC6=O)C7=O)C5)C4)c(OC)c3)cn(C)c(=O)c2C1` (stereo unspecified) [US12384776, Compound D135] cannot be ordered by DC50: under 10 nM for the first, under 10 nM for the second.

`CNC(=O)N1CCc2c(-c3cc(OC)c(CN4CCC5(CC4)CC(C#Cc4ccc6c(c4)C(=O)N(C4CCC(=O)NC4=O)C6=O)C5)c(OC)c3)cn(C)c(=O)c2C1` (stereo unspecified) [US12384776, Compound D134] and `CNC(=O)N1CCc2c(-c3cc(OC)c(CN4CCC5(CC4)CN(c4ccc6c(c4)C(=O)N(C4CCC(=O)NC4=O)C6=O)C5)c(OC)c3)cn(C)c(=O)c2C1` (stereo unspecified) [US12384776, Compound D159] cannot be ordered by DC50: under 10 nM for the first, under 10 nM for the second.

`CNC(=O)N1CCc2c(-c3cc(OC)c(CN4CCC5C4CN5c4ccc5c(c4)C(=O)N(C4CCC(=O)NC4=O)C5=O)c(OC)c3)cn(C)c(=O)c2C1` (stereo unspecified) [US12384776, Compound D157] and `CNC(=O)N1CCc2c(-c3cc(OC)c(CN4CCC5CN(c6ccc7c(c6)C(=O)N(C6CCC(=O)NC6=O)C7=O)C5C4)c(OC)c3)cn(C)c(=O)c2C1` (stereo unspecified) [US12384776, Compound D166] cannot be ordered by DC50: under 10 nM for the first, under 10 nM for the second.

`CNC(=O)N1CCc2c(-c3cc(OC)c(CN4CC5(CCN(c6ccc7c(c6)C(=O)N(C6CCC(=O)NC6=O)C7=O)CC5)C4)c(OC)c3)cn(C)c(=O)c2C1` (stereo unspecified) [US12384776, Compound D161] and `CNC(=O)N1CCc2c(-c3cc(OC)c(CN4CCC5(CCN(c6ccc7c(c6)C(=O)N(C6CCC(=O)NC6=O)C7=O)C5)C4)c(OC)c3)cn(C)c(=O)c2C1` (stereo unspecified) [US12384776, Compound D162] cannot be ordered by DC50: under 10 nM for the first, under 10 nM for the second.

`CNC(=O)N1CCc2c(-c3cc(OC)c(CN4CCC5(CC4)CCN(c4ccc6c(c4)C(=O)N(C4CCC(=O)NC4=O)C6=O)C5)c(OC)c3)cn(C)c(=O)c2C1` (stereo unspecified) [US12384776, Compound D163] and `CNC(=O)N1CCc2c(-c3cc(OC)c(CN4CCC5(C4)CN(c4ccc6c(c4)C(=O)N(C4CCC(=O)NC4=O)C6=O)C5)c(OC)c3)cn(C)c(=O)c2C1` (stereo unspecified) [US12384776, Compound D165] cannot be ordered by DC50: under 10 nM for the first, under 10 nM for the second.

`CNC(=O)N1CCc2c(-c3cc(OC)c(CN4CCN(C5CN(c6ccc7c(c6)C(=O)N(C6CCC(=O)NC6=O)C7=O)C5)CC4)c(OC)c3)cn(C)c(=O)c2C1` (stereo unspecified) [US12384776, Compound D164] and `CNC(=O)N1C=Cc2c(-c3cc(OC)c(CN4CCC(CN5CCC6(CC5)CN(c5ccc7c(c5)C(=O)N(C5CCC(=O)NC5=O)C7)C6)C(F)(F)C4)c(OC)c3)cn(C)c(=O)c2C1` (stereo unspecified) [US12384776, Compound D335] cannot be ordered by DC50: under 10 nM for the first, under 10 nM for the second.
